Data as given in publication PMC7073886, “Structure–Bioactivity Relationships of Lapatinib Derived Analogs against Schistosoma mansoni” (ACS Medicinal Chemistry Letters, 2020).

Columns and labels:
[1] = Log D7.4 shake-flask octanol-water; format: physicochemical; settings: pH 7.4
Procedure: Log D7.4. Shake-flask octanol-water distribution coefficient was determined at pH 7.4 (Log D7.4). The aqueous solution used is 10 mM sodium phosphate pH 7.4 buffer. The method has been validated for Log D7.4 ranging from -2 to 5.0.
Human Plasma Protein Binding (PPB). PPB was determined using equilibrium dialysis (RED device) to separate free from bound compound. The amount of compound in plasma (10 µM initial concentration) and in dialysis buffer (pH 7.4 phosphate buffer) was measured by LC-MS/MS after equilibration at 37 °C in a dialysis chamber. The fraction unbound (fu) is reported.
Human Liver Microsomal Clint. In vitro intrinsic clearance was determined from human liver microsomes using a standard approach.11 Following incubation and preparation, the samples were analyzed using […]
Rat Hepatocyte Clint. In vitro intrinsic clearance was determined from rat hepatocytes using a standard approach.11 Following incubation and preparation, the samples were analyzed using LC/MS/MS. Refined […]
Calculated LogP and LogD values. Both LogP and LogD predictions are based on a modified version of the method12 where the predicted partition coefficients are composed of the molecules’ atomic increments.
General Chemistry. All starting materials were commercially obtained and were used without further purification, unless specified. Reaction solvents were purified by passage through alumina columns on a purification system manufactured by Innovative Technology (Newburyport, MA). NMR spectra were obtained on Varian NMR systems, operating at 400 or 500 MHz for 1 H acquisitions. LCMS analysis was performed using a Waters AllianceHT e2795 reverse phase HPLC (Waters SunFire C18 4.6 × 50 mm, 3.5 μm column), with a Waters 2996 photodiode array detector scanning from 210 nm to 600 nm, and Waters Micromass ZQ detector (electrospray ionization). Where required, final compounds were purified by preparative reverse phase HPLC (columns Waters Symmetry RP8 30 × 50 mm, 5 μm column, or OBD RP18 30 × 50 mm, 5 μm), with a single wavelength UV−visible detector and Waters Micromass ZQ (electrospray ionization).

[2] = Rat hepatocyte Clint; format: in vitro ADME; settings: rat hepatocytes, intrinsic clearance; read-out: RH CLint
[3] = Human liver microsomal Clint; format: in vitro ADME; settings: human liver microsomes, intrinsic clearance; read-out: HLM Clint
[4] = system: adult S. mansoni; experiment: Phenotypic screen of adult S. mansoni worms, severity scores and descriptors; format: cell-based, Schistosoma mansoni; settings: for Descriptors (10 µM) 1 h / Severity Scores (10 μM) 1 h / Descriptors (10 µM) 5 h / Severity Scores (10 μM) 5 h / Descriptors (10 µM) 24 h / Severity Scores (10 μM) 24 h / Descriptors (10 µM) 48 h / Severity Scores (10 μM) 48 h: adult S. mansoni; for Descriptors (10 µM) 1 h / Descriptors (10 µM) 5 h / Descriptors (10 µM) 24 h / Descriptors (10 µM) 48 h: phenotypic descriptors; for Severity Scores (10 μM) 1 h / Severity Scores (10 μM) 5 h / Severity Scores (10 μM) 24 h / Severity Scores (10 μM) 48 h: scale 0 (no activity) to 4 (maximal activity); for bioactivity against adult S. mansoni: adult schistosomes; for Severity Scores (10 μM) 1 h / Severity Scores (10 μM) 5 h / Severity Scores (10 μM) 24 h / Severity Scores (10 μM) 48 h / bioactivity against adult S. mansoni: 10 μM
Excerpt: Because the schistosome parasite can present multiple and dynamic phenotypic responses to chemical insult,[16] we employ a constrained nomenclature of descriptors to describe the changes in the parasite as a function of time and concentration (e.g., motility, density, and shape; and in the case of the adult parasite, an inability to adhere to the bottom of the assay dish). These descriptors are converted into severity scores on a scale of 0 (green)–4 (severest/red) that allow for partially quantitative comparisons of compound effects.[1]−[19] […] The descriptors themselves and their respective scores are detailed in the Supporting Information, Table S1. Severity score data are presented in the results (with the corresponding descriptors detailed in the Supporting Information, Tables S2–S8), and eight new analogs developed and synthesized in support of this effort are described. Finally, absorption, distribution, metabolism and excretion (ADME) data of all compounds presented in this work are reported in the Supporting Information, Table S15.
Table S1. Descriptors and associated severity scores used for S. mansoni adults.
R (rounded or shape altered 1
On sides (adults unable to 1
Shrunk (adults are shorter 1
surface (tegument) of adults)
dfailed to create analytical method
Maintenance of the Schistosoma mansoni life cycle (NMRI isolate), the preparation of adult worms (≥ 42-
days-old), and their co-incubation with test compounds were as described.7-9 Phenotypic responses were
visually recorded using a constrained nomenclature and converted to severity scores on a scale from zero
(no activity) to 4 (maximal activity).8, 9 Use of hamsters for maintaining the S. mansoni life-cycle was
approved by the Institutional Animal Care and Use Committee of the University of California San Diego.
The human myelomonocytic cell line THP -1 was grown at 37 °C and 5% CO2 in RPMI-1640 supplemented
with 10% iFBS, 2 mM glutamate, 100 U/mL penicillin and […] streptomycin.
Drug toxicity to HepG2 cells .10 HepG2 cells line were obtained from the American Type Culture
Collection and cultured in Minimal Essential Medium (MEM) supplemented with 0.19% sodium
bicarbonate, 10% Fetal Bovine Serum, 2 mM L -glutamine, 0.1 mM MEM non-essential amino, 0.009
mg/mL insulin, 1.76 mg/mL bovine serum albumin. The viability of the cells was measured using the MTT
(thiazolyl blue reduction) method. Briefly, ninety -six-well plates were seeded with 2.5 × 10^4 cells/well in
170 ml of culture medium and incubated overnight in 5% CO 2 at 37 °C. Cells were exposed to different
experimental compounds in DMSO. After 48 hours incubation, the viability of the cells was assessed using
MTT (thiazolyl blue reduction) as a dose response assay (11 two -fold serial dilutions) to obtain a calculated
IC50 determination. 4-Azaindolo[2,1-b]quinazoline-6,12-dione is used as a toxicity positive control and
each assay plate includes the following 3 additional controls: a) background control: no cells and no drug
was added, b) target control: cells added but no drugs, and c) DMSO control: same as the target control
except the culture media contains 0.6% DMSO. Absorbance was determined in all wells using a Perkin
Elmer, Ensight plate reader. The fifty percent inhibitory concentrations (IC50’s) were determined using
GraphPad Prism nonlinear regr ession (sigmoidal dose -response, variable slope) equation .
ADME Experiment Protocols
Aqueous pH 7.4 Solubility. Compounds were dried down from 10 mM DMSO solutions using centrifugal
evaporation technique. Phosphate buffer (0.1 M pH 7.4) was added and StirStix were inserted in the glass
vials, with shaking then performed at a constant temperature of 25 °C for 20 -24 h. This step was followed
by double centrifugation with a tip wash in between, to ensure that no residues of the dried compounds
interfere. The solutions were diluted before analysis and quantification using LC/MS/MS was performed.

## CC(C)(C)OC(=O)N1CCN(c2ncc(-c3ccc4c(Nc5cnccn5)ccnc4c3)cn2)CC1 [3a]
[1]
  logD: 4.7
[2]
  hepatocyte CLint: 32 µL/min/1e6 cells
[3]
  microsomal CLint: > 300 µL/min/mg
[4]
  Descriptors (10 µM) 1 h: none
  Severity Scores (10 μM) 1 h: 0
  Descriptors (10 µM) 5 h: none
  Severity Scores (10 μM) 5 h: 0
  Descriptors (10 µM) 24 h: none
  Severity Scores (10 μM) 24 h: 0
  Descriptors (10 µM) 48 h: none
  Severity Scores (10 μM) 48 h: 0
  bioactivity against adult S. mansoni: no bioactivity

## O=C(O)C1CCCN1c1ncc(-c2ccc3c(Nc4cnccn4)ccnc3c2)cn1 (stereo not drawn) [3c]
[1]
  logD: 0.1
[2]
  hepatocyte CLint: < 1 µL/min/1e6 cells
[3]
  microsomal CLint: < 3 µL/min/mg
[4]
  Descriptors (10 µM) 1 h: none
  Severity Scores (10 μM) 1 h: 0
  Descriptors (10 µM) 5 h: none
  Severity Scores (10 μM) 5 h: 0
  Descriptors (10 µM) 24 h: none
  Severity Scores (10 μM) 24 h: 0
  Descriptors (10 µM) 48 h: none
  Severity Scores (10 μM) 48 h: 0
  bioactivity against adult S. mansoni: no bioactivity

## COC(=O)C1CCCN1c1ncc(-c2ccc3c(Nc4cnccn4)ccnc3c2)cn1 (stereo not drawn) [3d]
[1]
  logD: 3.5
[2]
  hepatocyte CLint: 230 µL/min/1e6 cells
[3]
  microsomal CLint: 220 µL/min/mg
[4]
  Descriptors (10 µM) 1 h: none
  Severity Scores (10 μM) 1 h: 0
  Descriptors (10 µM) 5 h: none
  Severity Scores (10 μM) 5 h: 0
  Severity Scores (10 μM) 24 h: 3
  Severity Scores (10 μM) 48 h: 4
  bioactivity against adult S. mansoni: bioactivity after 24 h, progressing to the severest response by 48 h

## CN(CCNc1ncc(-c2ccc3c(Nc4cnccn4)ccnc3c2)cn1)C(=O)OC(C)(C)C [3e]
[1]
  logD: 4.1
[2]
  hepatocyte CLint: > 300 µL/min/1e6 cells
[3]
  microsomal CLint: > 300 µL/min/mg
[4]
  Descriptors (10 µM) 1 h: none
  Severity Scores (10 μM) 1 h: 0
  Descriptors (10 µM) 5 h: none
  Severity Scores (10 μM) 5 h: 0
  Descriptors (10 µM) 24 h: none
  Severity Scores (10 μM) 24 h: 0
  Severity Scores (10 μM) 48 h: 4
  bioactivity against adult S. mansoni: maximal phenotypic response after 48 h

## CCN1CCN(c2ncc(-c3ccc4c(Nc5cnccn5)ccnc4c3)cn2)CC1 [4b]
[1]
  logD: 3.5
[2]
  hepatocyte CLint: 45 µL/min/1e6 cells
[3]
  microsomal CLint: > 300 µL/min/mg
[4]
  Descriptors (10 µM) 1 h: none
  Severity Scores (10 μM) 1 h: 0
  Severity Scores (10 μM) 5 h: 1
  Severity Scores (10 μM) 24 h: 1
  Descriptors (10 µM) 48 h: S, on sides
  Severity Scores (10 μM) 48 h: 2
  bioactivity against adult S. mansoni: activity after 5 h

## CN1CCN(c2ncc(-c3ccc4c(NC5CCC(N(C)C)CC5)ccnc4c3)cn2)CC1 (stereo not drawn) [S1a]
[1]
  logD: 0.3
[2]
  hepatocyte CLint: 4.2 µL/min/1e6 cells
[4]
  Descriptors (10 µM) 1 h: none
  Severity Scores (10 μM) 1 h: 0
  Descriptors (10 µM) 5 h: none
  Severity Scores (10 μM) 5 h: 0
  Descriptors (10 µM) 24 h: none
  Severity Scores (10 μM) 24 h: 0
  bioactivity against adult S. mansoni: no significant bioactivity

## CN1CCN(c2ncc(-c3ccc4c(NCCN5CCCC5)ccnc4c3)cn2)CC1 [S1b]
[1]
  logD: 1.2
[2]
  hepatocyte CLint: 1 µL/min/1e6 cells
[4]
  Descriptors (10 µM) 1 h: none
  Severity Scores (10 μM) 1 h: 0
  Descriptors (10 µM) 5 h: none
  Severity Scores (10 μM) 5 h: 0
  Descriptors (10 µM) 24 h: none
  Severity Scores (10 μM) 24 h: 0
  Severity Scores (10 μM) 48 h: 1
  bioactivity against adult S. mansoni: no significant bioactivity

## CN1CCN(c2ncc(-c3ccc4c(N[C@@H]5CCCC[C@H]5O)ccnc4c3)cn2)CC1 [S1c]
[1]
  logD: 1.7
[2]
  hepatocyte CLint: 8.1 µL/min/1e6 cells
[4]
  Descriptors (10 µM) 1 h: none
  Severity Scores (10 μM) 1 h: 0
  Descriptors (10 µM) 5 h: none
  Severity Scores (10 μM) 5 h: 0
  Descriptors (10 µM) 24 h: none
  Severity Scores (10 μM) 24 h: 0
  bioactivity against adult S. mansoni: no significant bioactivity

## CN1CCN(c2ncc(-c3ccc4c(NCC5CCOCC5)ccnc4c3)cn2)CC1 [S1e]
[1]
  logD: 2
[2]
  hepatocyte CLint: 23 µL/min/1e6 cells
[4]
  Descriptors (10 µM) 1 h: none
  Severity Scores (10 μM) 1 h: 0
  Descriptors (10 µM) 5 h: none
  Severity Scores (10 μM) 5 h: 0
  Descriptors (10 µM) 24 h: none
  Severity Scores (10 μM) 24 h: 0
  Severity Scores (10 μM) 48 h: 1
  bioactivity against adult S. mansoni: no significant bioactivity
